Data as given in patent US5538993A, “Certain tetrahydrocannabinol-7-oic acid derivatives” (priority 1991, dated 1996).

Assays:
cataleptic response = assay: Cataleptic effects, ring test; assay type: in vivo, mouse; settings: 5 min test period, ± SD
Description: The lack of CNS activity for the compounds described herein may be seen from the data shown in Table V. This was measured by the so-called "ring test" [Pertwee, R. G., et al., J. Pharmacol., 46, 753 (1972)] in which the cataleptic effects of cannabinoids can be quantitated. The compounds produced little or no response when compared with the parent drug.
The cataleptic response was measured using the ring test. Mice were placed on a horizontal wire ring 5.5 cm in diameter, which was attached to a 16 cm vertical rod. The hind paws and fore paws were placed at opposite sides of the ring. It is important that the ambient temperature is maintained at 30° C. and that the environment be free of auditory stimuli and bright lights. The criteria for immobility are detailed by Pertwee. The response is calculated as the fraction of time the mouse is immobile over a 5 min. test period. Measurements were always done between 2 and 4 p.m. and the animals were used only once.

Solubility = assay type: physicochemical; settings: result in words
forebrain ischemia = assay: Protection against forebrain ischemia (unilateral occlusion); assay type: in vivo; settings: mongolian gerbils, result in words
Excerpt: (§1) The present compounds are active in several tests generally used to indicate neuroprotection.

[1] = test system: strychnine induced lethality; assay: Protection against strychnine induced lethality; assay type: in vivo; settings: rats; result in words
Excerpt: as §1

mouse hot plate test = assay: Hot plate test for antinociception (55° C.); assay type: in vivo; settings: 0.02 mg/kg oral, 90 min before test
Description: In the hot plate test for analgesia an aluminum surface was maintained at 55±1° C. by circulating water through passages in the metal. A clear plastic cylinder 18 cm in diameter and 26 cm high was placed on the surface to prevent escape. The end point was taken when the mouse either performed a hind paw lick or jumped off the surface; in no case were the animals kept for more than 30 secs on the plate. Mice were never used more than one time; control values were always measured at 11 a.m. and test values at 2 p.m. The drugs were administered orally 90 min before the hot plate test. The percent change in response time (latency) was calculated by comparing the mean of the control values with the mean of the test values and statistical signficance determined by a paired tetest analysis using software (Statview, 512) from Brainpower, Inc., Calabasas, Calif.

NMDA receptor = assay: NMDA-blocking response in Xenopus oocytes injected with rat brain RNA; assay type: cell-based; settings: upon return to ND 96 solution
Excerpt: The oocyte is the most widely used system for studying the molecular, biophysical. and pharmacological properties of expressed voltage- or transmitter-operated ion channels. This giant cell offers several advantages for this type of studies. It can be readily used for two-electrode voltage clamp studies, translates injected mRNA from different sources and functionally expresses the translated proteins, and it is also readily amenable for intracellular microinjections. Importantly, the recordings of transmitter or voltage-induced currents in a single oocyte are extremely stable and can be done, without rundown, for 2-3 hours; this allows the performance of a full dose-response relation in single oocytes.
Neuronal receptors for excitatory amino acid (EAA) are becoming increasingly important for the understanding of normal and pathological brain function. Quantitative pharmacological studies of EAA receptor/ion channel. complex are difficult to study in neurons. Therefore, Xenopus oocyte injected with brain MRNA is now the preparation of choice.
The response to N-methyl-D-aspartate (NMDA) in oocytes injected with rat brain mRNA was characterized and the effects of HU-245 were studied.
Female Xenopus were anesthetized by immersion in water containing 0.15% tricaine methanesulfonate and a small incision was made in the lower abdomen. Ovary fragments were removed into ND-96. […]

peritoneal leukocytes = assay: Leukocyte adhesion assay (peritoneal cells after oral dosing); assay type: in vivo, female CD-1 mice; settings: cells collected 90 min after dosing; for number of adhering cells: ± S.D
Description: Leukocytes are thought to be major contributors to the inflammatory response and their ability in this regard is reflected by their adhesiveness to a variety of substrates [Audette, C. A., et al., ibid.] Sci., 47, 753 (1990)].
The details of the leukocytes adhesion assay have been previously reported [Audette et al., ibid.]. In brief, peritoneal cells from female CD-1 mice (20-25 g) were collected at 90 min following oral administration of the drug or vehicle (50 μl peanut oil). Cells from each treatment group (N=3) were pooled and equal numbers aliquoted into six culture dish wells (1.9 cm^2 area). After incubation for 18-20 hours, non-adhering cells were removed and the remaining cell monolayer quantitated by DNA measurement.

[2] = test system: Picrotoxin induced lethality; assay: Protection against picrotoxin induced lethality; assay type: in vivo, Balb/c male mice; settings: mice; result in words
Description: as §1
(§2) Balb/c male mice were administered with the drug 90 min before treatment with NMDA (125 mq/kg) or 120 min before picrotoxin (8 mg/kg) in emulsion, s.c. The survival rate shown in Table VI indicates number of survivors out of total number of animals used.

[3] = test system: N-methyl-D-aspartate (NMDA) induced lethality; assay: Protection against NMDA induced lethality; assay type: in vivo, Balb/c male mice; settings: mice; result in words
Description: as §1, §2

intraocular pressure = assay: Reduction of intraocular pressure (anti-glaucoma); assay type: in vivo, rabbits; settings: 50 μl drop of a 1% emulsion into rabbit eye
Description: Reduction of intraocular pressure in rabbits was determined by the addition of a 50 μl drop of a 1% emulsion of the cannabinoid into the rabbit eye. This test is a measure of anti-glaucoma activity.

Compound: CCCCCCC(C)(C)c1cc(OC(C)=O)c2c(c1)OC(C)(C)[C@H]1CC=C(C(=O)O)C[C@H]21 [HU-245, (3S, 4S) -THC-DMH-7-oic acid, acetate]
- cataleptic response (fraction of time immobile) (cataleptic response; 0.5 mg/kg): 6.8 ± 2.4
- cataleptic response (fraction of time immobile) (cataleptic response; 1.0 mg/kg): 12.0 ± 6.0
- solubility compared with prior art compounds (Solubility): higher than that of prior art compounds
- protection against forebrain ischemia (forebrain ischemia): shown to protect against forebrain ischemia
- protection against strychnine induced lethality [1]: protects against strychnine induced lethality
- percent change in latency (mouse hot plate test): 10.7%
- reversibility of effect on NMDA response (NMDA receptor): reversible
- adhering cells, percent of control (peritoneal leukocytes; 0.10 mg/kg oral): 124% of control
- number of adhering cells (peritoneal leukocytes; 0.10 mg/kg oral): 0.66 ± 0.08 number of adhering cells × 10^-6
- number of adhering cells (peritoneal leukocytes; 0.50 mg/kg oral): 0.85 ± 0.08 number of adhering cells × 10^-6
- number of adhering cells (peritoneal leukocytes; 1.00 mg/kg oral): 0.30 ± 0.04 number of adhering cells × 10^-6
- blocking of picrotoxin induced lethality [2]: blocker
- blocking of NMDA induced lethality [3]: blocker
- reduction of intraocular pressure (intraocular pressure): Significant reduction
